Reference: US6384222B1, “N-benzenesulfonyl-L-proline compounds, preparation method and method for using the compounds in therapy” (Fournier Industrie et Sante, priority 1997, dated 2002)

Assays:
bradykinin B2 receptor [1] = target: T1, bradykinin B2 receptor (Cavia porcellus, UniProt O70526); assay: Inhibition of [3H]-bradykinin binding to guinea-pig ileum membranes; settings: test compound 10^-6 M, [3H]-bradykinin 120 pM, 90 min at 20° C.
T1 construct: Ileum segments are isolated from male guinea-pigs; from tissue; host or cells: guinea-pig ileum (Dunkin-Hartley strain; animals from Iffa Credo)
T1 sequence (O70526 1-372): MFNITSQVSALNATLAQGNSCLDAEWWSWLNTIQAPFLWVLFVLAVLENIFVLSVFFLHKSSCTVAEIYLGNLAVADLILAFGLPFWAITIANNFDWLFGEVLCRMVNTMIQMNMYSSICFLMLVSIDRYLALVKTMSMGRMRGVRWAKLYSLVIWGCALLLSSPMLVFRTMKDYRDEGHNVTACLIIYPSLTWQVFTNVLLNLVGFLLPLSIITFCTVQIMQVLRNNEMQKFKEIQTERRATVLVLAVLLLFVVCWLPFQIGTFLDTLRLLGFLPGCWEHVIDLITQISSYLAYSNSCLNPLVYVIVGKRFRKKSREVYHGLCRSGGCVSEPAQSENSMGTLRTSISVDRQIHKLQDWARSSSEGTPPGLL
Method: The following pharmacological test is used: Ileum segments are isolated from male guinea-pigs [of the Dunkin-Hartley strain (Iffa Credo, l'Arbresle, France)] and ground in the following TES buffer: TES 25 mM, 1,10-phenanthroline 1 mM (pH 6.8), bacitracin 140 μg/ml, BSA 1 g/l. The membranes are then isolated by centrifugation (18,000 rpm; 20 min 4° C.). The binding studies are carried out in this TES buffer using [^3H]-bradykinin (120 pM) and 50 μg of membrane protein per test (final volume 500 μl) with an equilibrium time of 90 min at 20° C. The percentage inhibition of the binding of [^3H]-bradykinin is then determined in the presence of one of the test compounds according to the invention at a concentration of 10^−6 M.
The results obtained from these tests (shown as “activity”) are collated in Table I below with reference to the Examples given in the description. In this Table, the meaning of the heterocyclic radicals Q is given in the notes and the nature of the salts is indicated by the abbreviations Chl in the case of a hydrochloric acid salt and Ms in the case of a methanesulfonic acid salt.

bradykinin B2 receptor [2] = target: T1, bradykinin B2 receptor; assay: Antagonism of bradykinin-induced B2 receptor activation on guinea-pig ileum (pKB, Pruneau et al.); settings: antagonism of bradykinin at B2 receptor
Description: The compounds according to the invention have an antagonistic effect towards the bradykinin B2 receptor (they inhibit the activation of the B2 receptors which is induced by bradykinin). […] The experimental results, evaluated by the pKB described in the above publication, are reported in the summary Table.

Structure (SMILES) | Activity % (percentage inhibition of the binding of [3H]-bradykinin) (bradykinin B2 receptor [1]) [%] | pKB (bradykinin B2 receptor [2])
CS(=O)(=O)O.CS(=O)(=O)O.Cc1cc(=O)n2cccc(OCc3c(Cl)ccc(S(=O)(=O)N4CCC[C@H]4C(=O)NCCCNC(=O)c4ccc(C(=N)N)cc4)c3Cl)c2n1 [Example 30, 1-[[3-[[2-Methyl-4H-pyrido[1,2-a]pyrimidin-9-yl-4-one]oxymethyl]-2,4-dichlorophenyl]sulfonyl]-N-[3-[[4-(aminoiminomethyl)benzoyl]amino]propyl]-2(S)-pyrrolidinecarboxamide Bis(methanesulfonate)] | 99.3 | 7.9
CS(=O)(=O)O.CS(=O)(=O)O.Cc1cc(=O)n2cccc(OCc3c(Cl)ccc(S(=O)(=O)N4CCC[C@H]4C(=O)N4CCN(C(=O)c5ccc(C(=N)N)cc5)CC4)c3Cl)c2n1 [Example 33] | 96 | 7.8
CS(=O)(=O)O.CS(=O)(=O)O.Cc1nc2c(OCc3c(Cl)ccc(S(=O)(=O)N4CCC[C@H]4C(=O)NCCCNC(=O)c4ccc(C(=N)N)cc4)c3Cl)cccn2c1Cl [Example 38, 1-[[3-[[3-Chloro-2-methylimidazo[1,2-a]pyridin-8-yl]oxymethyl]-2,4-dichlorophenyl]sulfonyl]-N-[3-[[4-(aminoimiomethyl)benzoyl]amino]propyl]-2(S)-pyrrolidinecarboxamide Bis(methanesulfonate)] | 100 | 
CS(=O)(=O)O.CS(=O)(=O)O.Cc1nc2c(OCc3c(Cl)ccc(S(=O)(=O)N4CCC[C@H]4C(=O)N4CCN(C(=O)c5ccc(C(=N)N)cc5)CC4)c3Cl)cccn2c1Cl [Example 41] | 100 | 
CC(=O)c1c(C)nc2c(OCc3c(Cl)ccc(S(=O)(=O)N4CCC[C@H]4C(=O)NCCCNC(=O)c4ccc(C(=N)N)cc4)c3Cl)cccn12.CS(=O)(=O)O.CS(=O)(=O)O [Example 44, 1-[[3-[[3-Acetyl-2-methylimidazo[1,2-a]pyridin-8-yl]oxymethyl]-2,4-dichlorophenyl]sulfonyl]-N-[3-[[4-(aminoiminomethyl)benzoyl]amino]propyl]-2(S)-pyrrolidinecarboxamide Bis(methanestilfonate)] | 100 | 
